Laboratory results from PubChem BioAssay (NCI).
Where “and” joins values, the source holds several entries; their conditions need not be identical. Identical values can stand only once.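 All cell lines were grown in 96-well plates and treated with compound for 48 hours. At the GI50, growth is halved. TGI denotes the concentration required for complete inhibition of growth.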

Legend:
Test in all cases: NCI-60 cell line screen, 48 h
M14 melanoma = system: M14 melanoma
U251 CNS = system: U251 CNS
BT-549 breast = system: BT-549 breast
NCI/ADR-RES ovarian = system: NCI/ADR-RES ovarian
SR leukemia = system: SR leukemia
TK-10 renal = system: TK-10 renal
ACHN renal = system: ACHN renal
SF-268 CNS = system: SF-268 CNS
A498 renal = system: A498 renal
CAKI-1 renal = system: CAKI-1 renal

| Compound | GI50 (M14 melanoma) | TGI (M14 melanoma) | GI50 (U251 CNS) | TGI (U251 CNS) | GI50 (BT-549 breast) | TGI (BT-549 breast) | GI50 (NCI/ADR-RES ovarian) | TGI (NCI/ADR-RES ovarian) | GI50 (SR leukemia) | TGI (SR leukemia) | GI50 (TK-10 renal) | TGI (TK-10 renal) | GI50 (ACHN renal) | TGI (ACHN renal) | GI50 (SF-268 CNS) | TGI (SF-268 CNS) | GI50 (A498 renal) | TGI (A498 renal) | GI50 (CAKI-1 renal) | TGI (CAKI-1 renal) |
| --- | --- | --- | --- | --- | --- | --- | --- | --- | --- | --- | --- | --- | --- | --- | --- | --- | --- | --- | --- | --- |
| Cn1cc(C2=C(c3cccnc3)C(=O)NC2=O)c2ccccc21 | > 25 µM | > 25 µM | 18.8 µM | > 25 µM | > 25 µM | > 25 µM | > 25 µM | > 25 µM | 15.5 µM | > 25 µM | > 25 µM | > 25 µM | 14.1 µM | > 25 µM | > 25 µM | > 25 µM | 9.03 µM | > 22.9 µM | > 17.4 µM | > 25 µM |
| C=CC(C)(O)/C=C/C=C(\C)C(CC1OC1(C)C)OC(=O)/C(C)=C\C (configuration not stated) | – | > 100 µM | – | > 100 µM | – | > 100 µM | – | > 100 µM | – | > 100 µM | – | > 100 µM | – | > 100 µM | – | > 100 µM | – | > 100 µM | – | > 100 µM |
| COC1CCC(O)C(/C=C/[N+](=O)[O-])C1 (configuration not stated) | – | 10.7 µM | – | 8.04 µM | – | 8.49 µM | – | 75.1 µM | – | 5.43 µM | – | 16.1 µM | – | 29.9 µM | – | 15 µM | – | 14.2 µM | – | 38.4 µM |
| c1ccc(-c2cc(C3CO3)c3ccccc3n2)cc1 (configuration not stated) | – | 34.2 µM | – | 30 µM | – | 43.6 µM | – | 57.6 µM | – | 45.3 µM | – | 53.4 µM | – | 32.8 µM | – | 47.3 µM | – | 39.8 µM | – | 47.9 µM |
| Oc1c(CN2CCCC2)cc(COCc2ccc(Br)cc2)c2cccnc12 | 0.36 µM | 1.77 µM | 0.525 µM | 2.78 µM | 1.81 µM | 6.49 µM | 0.0707 µM | 1.13 µM | 0.365 µM | 2.23 µM | 0.474 µM | 10.3 µM | 0.241 µM | 1.97 µM | 0.76 µM | 6.28 µM | 1.62 µM | 5.27 µM | 0.106 µM | 2.28 µM |
| CC(=O)O[C@H](C[C@H](C(C)C)N(C)C(=O)[C@@H](NC(=O)[C@H]1CCCCN1C)C(C)C)c1nc(C(=O)N[C@@H](Cc2ccccc2)C[C@H](C)C(=O)O)c(C(C)C)s1 | < 0.00333 µM | 0.161 µM | < 0.00333 µM | > 33.3 µM | 0.00338 µM | 0.0147 µM | 0.0691 µM | – | < 0.00333 µM | > 33.3 µM | 0.475 µM | > 33.3 µM | 0.00458 µM | > 18.5 µM | < 0.00333 µM | > 33.3 µM | < 0.00333 µM | < 0.00333 µM | < 0.00333 µM | > 27.4 µM |
| COc1ccc(C2=NN(C(=O)c3cc(OC)c(OC)c(OC)c3)C(c3ccc(Cl)cc3)C2)cc1OC (configuration not stated) | 4.66 µM | > 100 µM | 3.67 µM | 42.2 µM | 2.95 µM | 71.6 µM | 1.05 µM | – | 0.448 µM | > 100 µM | 3.63 µM | > 81.6 µM | 2.32 µM | 41.3 µM | 2.66 µM | 23.6 µM | 0.608 µM | 8.3 µM | 1.14 µM | > 54.1 µM |
| CN1CCN(c2ccc3nc(-c4c(N)c5c(F)cccc5[nH]c4=O)[nH]c3c2)CC1 | 0.41 µM and 0.34 µM and 0.445 µM | 1.71 µM and 1.54 µM and 1.93 µM | 1.02 µM and 0.652 µM and 0.78 µM | 2.45 µM and > 3.32 µM and 3.49 µM | 1.62 µM and 0.501 µM and 1.26 µM | 10.2 µM and > 2.97 µM and 5.95 µM | 1.77 µM and 2.64 µM and 2.47 µM | 7.18 µM and > 10 µM and 13 µM | 0.472 µM and 0.284 µM and 0.502 µM | 10.2 µM and 1.44 µM and 7.97 µM | 1.14 µM and 1.01 µM and 3.56 µM | 4.95 µM and > 4.67 µM and 16.8 µM | 0.335 µM and 0.342 µM and 0.371 µM | 1.83 µM and > 6.36 µM and 4.74 µM | 1.39 µM and 0.717 µM and 1.65 µM | 4.16 µM and > 2.83 µM and 10.1 µM | 0.224 µM and 0.144 µM and 0.135 µM | – | 0.213 µM and 0.282 µM and 0.387 µM | 1.57 µM and > 10 µM and 12.5 µM |
| Cc1ccc(C)c(NC(=O)NCc2ccc(Cl)cc2)c1 | – | > 100 µM | – | > 100 µM | – | > 100 µM | – | > 100 µM | – | 27.8 µM | – | 69.8 µM | – | > 90.7 µM | – | > 100 µM | – | 88.4 µM | – | > 100 µM |
| COC(=O)[C@]12CC[C@@H](C)[C@H](C)[C@@H]1C1=CC[C@@H]3[C@@]4(C)C(C=O)=C[C@@](C)(COC(=O)c5ccco5)[C@@H]4C(=O)C[C@@]3(C)[C@]1(C)CC2 | 0.286 µM | > 100 µM | 4.83 µM | > 100 µM | 4.06 µM | > 100 µM | 4.82 µM | > 100 µM | 3.12 µM | 39.4 µM | 11.7 µM | > 100 µM | 1.22 µM | > 100 µM | 7.03 µM | > 100 µM | 12.1 µM | 94.7 µM | 3.77 µM | > 100 µM |
| C[C@@H]1CC[C@@H]2[C@@H]1[C@H](OC(=O)/C=C/c1ccccc1)[C@]1(C3CCCCC3)C[C@@H](NC(=O)CO)[C@@]2(C)O1 | 18.6 µM | 35.6 µM | 18.6 µM | 34 µM | 13.2 µM | 26.7 µM | 12.9 µM | 32.1 µM | 19.8 µM | 41.2 µM | 18.4 µM | 35.3 µM | 3.51 µM | 13.1 µM | 14.3 µM | 30 µM | 2.19 µM | 6.61 µM | 6.01 µM | 19.7 µM |
